Reference: patent US10760110B2, “Antibiotic testing and screening system” (priority 2017, dated 2020)
Converted amounts (≈) assume the structure as drawn. Read-outs that look alike come from different tables or passages of the source.

Columns and labels:
[1] = test system: A. baumannii KW1 strains with β-lactamase plasmids; test: Etest MIC of β-lactams, extended-spectrum β-lactamase, AmpC β-lactamase or carbapenemase (Table 18); type: cell-based, Acinetobacter baumannii
Protocol: (§1) DNA fragments of the resistance genes along with their flanking regions were amplified from clinical plasmids via PCR with specific primer pairs. The resulting PCR fragments were digested and then cloned into the plasmid pYMAb5 or pYMAb5Tc. The resulting plasmids were then transformed into A. baumannii KW1 via electroporation.
(§2) The MICs of antibiotics were determined using the Etest (Biodisk AB, Sweden) according to the manufacturer's instructions. The MICs from the Etest, which fall between standard two-fold dilutions, were rounded up to the next highest two-fold value. The MICs of ceftazidime and cefotaxime against K. pneumoniae NVT1001 harbouring the pACYC177 plasmid with blaOXA-48 were further determined using a broth microdilution test according to the recommendations of the CLSI,^25 and the results were interpreted according to the breakpoints established by the CLSI in 2017.^25 Meanwhile, due to the lack of CLSI breakpoints in 2016 and 2017, the results for cephalothin were interpreted according to the breakpoints established by the CLSI in 2015,^26 and the results for moxifloxacin were interpreted according to the breakpoints established by the EUCAST in 2017.^27

[2] = test system: A. baumannii KW1 and its AdeR/AdeS mutants; test: Etest MIC, AdeABC overexpression via AdeR or AdeS mutation (Table 16); type: cell-based, Acinetobacter baumannii
Source text: DNA fragments of the entire adeR, adeS, gyrA and parC along with their flanking regions were amplified from A. baumannii KW1 using PCR with specific primer pairs and then cloned into plasmid pUT-KB. The QuikChange site-directed mutagenesis kit (Stratagene) was used to generate mutations in the adeR, adeS, gyrA and parC genes in the plasmids using the methods described by the manufacturer. For homologous recombination, plasmids containing mutations in the adeR, adeS, gyrA or parC gene were transformed into E. coli S17-1 λpir^23 via electroporation and mobilized into A. baumannii KW1 via conjugation. Single-crossover strains were selected from Luria-Bertani (LB) plates supplemented with cefotaxime (1 μg/ml) and kanamycin ([…]), as the growth of non-A. baumannii contaminants is suppressed by cefotaxime (1 μg/ml). The kanamycin-resistant transconjugants were selected and the insertion of plasmids was verified via PCR. After incubation in 20 ml brain heart infusion (BHI) broth for 6 hours in the absence of kanamycin at 37° C., the fully grown cultures were spread onto LB plates supplemented with 10% sucrose. After the double crossover occurred, the sucrose-resistant and kanamycin-susceptible colonies were selected, and the gene mutations were confirmed via PCR.
as §2

[3] = test system: K. pneumoniae NVT1001 and ΔramR strains with tet resistance gene plasmids; test: Etest MIC of tetracyclines, AcrAB-TolC overexpression (ΔramR) and/or tet resistance gene (Table 14); type: cell-based, Klebsiella pneumoniae; details: Klebsiella pneumoniae
Protocol: DNA fragments of the resistance genes along with their flanking regions were amplified from clinical plasmids via PCR with specific primer pairs. The resulting PCR fragments were digested and then cloned into the plasmid pACYC177 or pACYC184. The resulting plasmids were then transformed into K. pneumoniae strain NVT1001 via electroporation. The recombinant bacteria were plated onto LB agar plates containing kanamycin (50 mg/L) or chloramphenicol (50 mg/L), and the presence of the cloned gene was confirmed via PCR and DNA sequencing.
as §2

[4] = test system: K. pneumoniae NVT1001 and its ΔompK35/36 and/or ΔramR mutants; test: Etest MIC, OmpK35/36 loss and AcrAB-TolC overexpression (ΔramR) strains (Table 6); type: cell-based, Klebsiella pneumoniae; details: Klebsiella pneumoniae
Summary of the method: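 Ceftazidime and cefotaxime were tested by CLSI broth microdilution on the blaOXA-48 pACYC177 transformant of NVT1001, using CLSI 2017 breakpoints. Parent, porin-deleted (ΔompK35/36) and ΔramR strains were tested by Etest, with values between two-fold dilutions rounded up.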

[5] = test system: K. pneumoniae NVT1001 ΔramRΔompK35/36 mutant and its revertants; test: Etest MIC, ΔramRΔompK35/36 mutant and its revertants (Table 7); type: cell-based; details: Klebsiella pneumoniae
Source text: The allelic-exchange method was used to restore the wild-type gene in the K. pneumoniae NVT1001 mutants with constructed chromosome-mediated resistance mechanisms, as described by Tsai et al.^19 Briefly, a DNA fragment of the entire wild-type gene sequence along with flanking regions was amplified from K. pneumoniae NVT1001 using PCR with specific primers. The resulting PCR fragment was digested and then cloned into pUT-KB. For homologous recombination, this plasmid was transformed into E. coli S17-1 λpir^23 via electroporation and mobilized into the K. pneumoniae NVT1001 mutant via conjugation. […] After incubation in 20 mL BHI broth for 6 hours at 37° C. in the absence of kanamycin, the fully grown cultures were spread onto LB agar plates supplemented with 10% sucrose. After the double crossover occurred, the sucrose-resistant and kanamycin-susceptible colonies were selected, and the restoration of the wild-type gene was confirmed via DNA sequencing.
as §2

[6] = test system: A. baumannii KW1 strains with tet resistance gene plasmids; test: Etest MIC of tetracyclines, tet resistance gene (Table 20); type: cell-based, Acinetobacter baumannii; details: for MIC: Acinetobacter baumannii; for increase in the MIC: production of Tet(A), Tet(B) or Tet(C)
Protocol: as §1, §2

[7] = NVT1001, Tet(A) on pACYC177, read-out: MIC
[8] = NVT1001, Tet(B) on pACYC177, read-out: MIC
[9] = NVT1001, Tet(C) on pACYC177, read-out: MIC
[10] = NVT1001, Tet(D) on pACYC177, read-out: MIC
[11] = NVT1001, Tet(M) on pACYC177, read-out: MIC
[12] = NVT1001, no supplemental plasmid, read-out: MIC
[13] = ΔramRΔ35/36, ΔramRΔompK35/36 mutant
[14] = ΔramRΔompK35/36::ompK35/36 revertant
[15] = ΔramRΔompK35/36::ompK35 revertant
[16] = ΔramRΔompK35/36::ompK36 revertant
[17] = ΔramRΔompK35/36::ramR revertant
[18] = ΔramRΔompK35/36::ramR::ompK35/36 revertant
[19] = ΔramRΔompK35/36::ramR::ompK35 revertant
[20] = ΔramRΔompK35/36::ramR::ompK36 revertant

Row | Structure (SMILES) | MIC [3, 7] [µg/mL] | MIC [3, 8] [µg/mL] | MIC [3, 9] [µg/mL] | MIC [3, 10] [µg/mL] | MIC [3, 11] [µg/mL] | MIC [3, 12] [µg/mL] | MIC ([3]; ΔramR, Tet(A) on pACYC177) [µg/mL] | MIC ([3]; ΔramR, Tet(B) on pACYC177) [µg/mL] | MIC ([3]; ΔramR, Tet(C) on pACYC177) [µg/mL] | MIC ([3]; ΔramR, Tet(D) on pACYC177) [µg/mL] | MIC ([3]; ΔramR, Tet(M) on pACYC177) [µg/mL] | MIC ([3]; ΔramR, no supplemental plasmid) [µg/mL] | MIC ([4]; WT, NVT1001, read-out: MIC) [µg/mL] | MIC ([4]; Δ36, ΔompK36 mutant) [µg/mL] | MIC ([6]; KW1, Tet(A) on pYMAb5) [µg/mL] | MIC ([6]; KW1, Tet(B) on pYMAb5) [µg/mL] | MIC ([6]; KW1, Tet(M) on pYMAb5) [µg/mL] | MIC ([6]; KW1, no supplemental plasmid) [µg/mL] | MIC ([6]; KW1 with shuttle vector pYMAb5) [µg/mL] | increase in the MIC [6] [fold] | further results
1 | CC(C)(O/N=C(\C(=O)N[C@@H]1C(=O)N2C(C(=O)[O-])=C(C[n+]3ccccc3)CS[C@H]12)c1csc(N)n1)C(=O)O [CAZ] |  |  |  |  |  |  |  |  |  |  |  |  |  |  |  |  |  |  |  |  | MIC ([1]; KW1, no supplemental plasmid): 4 µg/mL; MIC ([1]; KW1 with ADC-30 on pYMAb5): >256 µg/mL; MIC ([1]; KW1 with CTX-M-15 on pYMAb5): >256 µg/mL; MIC ([1]; KW1 with IMP-1 on pYMAb5): 48 µg/mL; MIC ([1]; KW1 with NDM-1 on pYMAb5): >256 µg/mL; MIC ([1]; KW1 with OXA-23 on pYMAb5): 3 µg/mL; MIC ([1]; KW1 with OXA-58 on pYMAb5): 3 µg/mL; MIC ([1]; KW1 with OXA-66 on pYMAb5): 3 µg/mL; MIC ([1]; KW1 with OXA-72 on pYMAb5): 3 µg/mL; MIC ([1]; KW1 with VEB-3 on pYMAb5): >256 µg/mL; MIC ([1]; KW1 with VIM-1 on pYMAb5): >256 µg/mL; MIC ([1]; KW1 with shuttle vector pYMAb5): 3 µg/mL; MIC ([2]; A91V mutant (AdeR)): 16 µg/mL; MIC ([2]; A94V mutant (AdeS)): 8 µg/mL; MIC ([2]; D20N mutant (AdeR)): 12 µg/mL; MIC ([2]; G30D mutant (AdeS)): 8 µg/mL; MIC ([2]; KW1): 4 µg/mL; MIC ([2]; P116L mutant (AdeR)): 8 µg/mL; MIC ([2]; R152K mutant (AdeS)): 8 µg/mL; MIC ([2]; T153M mutant (AdeS)): 8 µg/mL
2 | C[C@H]1c2cccc(O)c2C(=O)C2=C(O)[C@]3(O)C(=O)C(C(N)=O)=C(O)[C@@H](N(C)C)[C@@H]3[C@@H](O)[C@@H]21 [Doxycycline, doxycycline] | > 256 | > 256 | 16 | 128 | 32 | 4 | > 256 | > 256 | 128 | 256 | 128 | 64 | 4 (≈ 9 µM) | 4 (≈ 9 µM) | 12 | 32 | 192 | 0.75 | 0.75 | 4 | MIC ([4]; Δ35, ΔompK35 mutant): 4 µg/mL (≈ 9 µM); MIC ([4]; Δ35/36, ΔompK35/36 mutant): 4 µg/mL (≈ 9 µM); MIC ([4]; ΔramR mutant): 64 µg/mL (≈ 144 µM); MIC ([4]; ΔramRΔ35, ΔramRΔompK35 mutant): 64 µg/mL (≈ 144 µM); MIC [4, 13]: 128 µg/mL (≈ 288 µM); MIC ([4]; ΔramRΔ36, ΔramRΔompK36 mutant): 64 µg/mL (≈ 144 µM); MIC [5, 14]: 64 µg/mL; MIC [5, 15]: 64 µg/mL; MIC [5, 16]: 64 µg/mL; MIC [5, 17]: 4 µg/mL; MIC [5, 18]: 4 µg/mL; MIC [5, 19]: 4 µg/mL; MIC [5, 20]: 4 µg/mL; MIC ([5]; ΔramRΔompK35/36 mutant): 128 µg/mL
3 | CN(C)c1ccc(O)c2c1C[C@H]1C[C@H]3[C@H](N(C)C)C(O)=C(C(N)=O)C(=O)[C@@]3(O)C(O)=C1C2=O [Minocycline] | 32 | 32 | 4 | 128 | 32 | 4 | > 256 | > 256 | 64 | > 256 | > 256 | 64 | 4 (≈ 8.74 µM) | 4 (≈ 8.74 µM) | 1.5 | 1.5 | 2 | 0.38 | 0.25 | 4 | MIC ([4]; Δ35, ΔompK35 mutant): 4 µg/mL (≈ 8.74 µM); MIC ([4]; Δ35/36, ΔompK35/36 mutant): 4 µg/mL (≈ 8.74 µM); MIC ([4]; ΔramR mutant): 64 µg/mL (≈ 140 µM); MIC ([4]; ΔramRΔ35, ΔramRΔompK35 mutant): 128 µg/mL (≈ 280 µM); MIC [4, 13]: 128 µg/mL (≈ 280 µM); MIC ([4]; ΔramRΔ36, ΔramRΔompK36 mutant): 128 µg/mL (≈ 280 µM); MIC [5, 14]: 128 µg/mL; MIC [5, 15]: 128 µg/mL; MIC [5, 16]: 128 µg/mL; MIC [5, 17]: 4 µg/mL; MIC [5, 18]: 4 µg/mL; MIC [5, 19]: 4 µg/mL; MIC [5, 20]: 4 µg/mL; MIC ([5]; ΔramRΔompK35/36 mutant): 128 µg/mL
4 | CN(C)[C@@H]1C(O)=C(C(N)=O)C(=O)[C@@]2(O)C(O)=C3C(=O)c4c(O)cccc4[C@@](C)(O)[C@H]3C[C@@H]12 [Tetracycline, tetracycline] | > 256 | > 256 | 16 | > 256 | 16 |  | > 256 | > 256 | 256 | > 256 | 128 |  |  | 2 (≈ 4.5 µM) | 128 | > 256 | 48 | 3 | 3 | 4 | MIC ([2]; Acinetobacter baumannii, A91V mutant (AdeR)): 12 µg/mL; MIC ([2]; Acinetobacter baumannii, A94V mutant (AdeS)): 6 µg/mL; MIC ([2]; Acinetobacter baumannii, D20N mutant (AdeR)): 8 µg/mL; MIC ([2]; Acinetobacter baumannii, G30D mutant (AdeS)): 8 µg/mL; MIC ([2]; Acinetobacter baumannii, KW1, read-out: MIC): 3 µg/mL; MIC ([2]; Acinetobacter baumannii, P116L mutant (AdeR)): 6 µg/mL; MIC ([2]; Acinetobacter baumannii, R152K mutant (AdeS)): 6 µg/mL; MIC ([2]; Acinetobacter baumannii, T153M mutant (AdeS)): 8 µg/mL
